Measured values: patent US9321796B2, “Galactopyranosyl derivatives useful as medicaments” (Universiteit Gent, priority 2012, dated 2016)

How the values were obtained:
solid tumours = settings: Phase I study; cited from earlier work
[1] = target: T1, TCR / mCD1d-glycolipid complex (Mus musculus, UniProt P11609); test: Surface plasmon resonance: TCR binding to mCD1d-glycolipid complexes
T1 sequence (P11609 19-297): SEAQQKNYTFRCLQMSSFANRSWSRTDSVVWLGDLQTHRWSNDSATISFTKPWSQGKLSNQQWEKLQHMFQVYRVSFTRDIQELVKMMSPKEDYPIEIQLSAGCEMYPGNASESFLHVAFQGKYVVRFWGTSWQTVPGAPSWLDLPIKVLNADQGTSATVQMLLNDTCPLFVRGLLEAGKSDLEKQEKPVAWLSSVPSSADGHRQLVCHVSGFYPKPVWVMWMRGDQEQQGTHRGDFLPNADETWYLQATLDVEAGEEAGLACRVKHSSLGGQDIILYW
T1 sequence (P01887 21-119 partner): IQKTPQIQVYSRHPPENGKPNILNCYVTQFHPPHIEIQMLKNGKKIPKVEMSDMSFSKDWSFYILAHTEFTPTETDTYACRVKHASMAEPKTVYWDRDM
Experimental: SPR studies were conducted using a Biacore 3000 (Biacore). Glycolipids were dissolved at 1 mg/ml in DMSO and before loading were diluted to 0.25 mg/ml with vehicle solution (50 mM Tris-HCl pH 7.0, 4.8 mg/ml sucrose, 0.5 mg/ml deoxycholate and 0.022% Tween-20), heated for 20 minutes at 80° C. After cooling 1 μg of each lipid was incubated with 10 μg enzymatically biotinylated mCD1d overnight at room temperature. In one embodiment, 400-600 response units (RU) of mCD1d-glycolipid complexes were immobilized onto a CA capture chip (Biacore). A reference surface was generated in another flow channel with unloaded mCD1d immobilized at RU of 500. During the association phase, a series of increasing concentrations of TCR (in 10 mM HEPES, 150 mM NaCl, 3.0 mM EDTA, pH 7.4) in duplicate were injected for 80 seconds and the dissociation phase (running buffer only) was monitored over 45 minutes. Experiments were carried out at 25° C. with a flow rate of 30 μl/min and performed at least two to three times, each time with a different batch of TCR preparation. Kinetic parameters were calculated after subtracting the response to mCD1d molecules in the reference channel, using a simple Langmuir 1:1 model in the BIA evaluation software version 4.1. One representative sensorgram for each lipid is shown. […]

CD1d = target: T2, CD1d (Mus musculus, UniProt P11609); test: Buried surface area between glycolipid and CD1d in crystal structures; settings: mCD1d-glycolipid-mTCR crystal structures
T2 construct: made in house
T2 sequence (P11609 19-297 limits assumed): T1 sequence (P11609 19-297)
Experimental: First, the ternary mCD1d-lipid-mTCR complexes using the glycolipids 4ClPhC-α-GalCer (3a) and PyrC-α-GalCer (3c) were prepared as described previously for NU-α-GalCer, and purified by size exclusion chromatography (SEC) using Superdex S200 10/300 GL (GE Healthcare). Both mCD1d-4ClPhC-α-GalCer-mTCR and mCD1d-PyrC-α-GalCer-mTCR complexes were concentrated to 3.5 mg/ml in SEC buffer (50 mM Hepes, pH 7.5, 150 mM NaCl). Crystals were grown at 22.3° C. by sitting drop vapor diffusion while by mixing 0.5 μl mCD1d-4ClPhC-α-GalCer-mTCR and 0.5 μl precipitate (20% PEG 4000, 0.2 M sodium thiocyanate) or by mixing 1 μl mCD1d-PyrC-α-GalCer-mTCR and […] precipitate (20% PEG 4000, 0.2 M di-ammonium hydrogen citrate), respectively.
Crystals were flash-cooled at 100° K in a mother liquor containing 30% glycerol. […]
The asymmetric unit contains one mCD1d-glycolipid-TCR molecule with estimated solvent content of 57.3% based on a Matthews' coefficient (Vm) of 2.88 A^3/Da for 4ClPhC-α-GalCer and 56.9% (VM) of 2.86 A^3/Da for PyrC-α-GalCer. Crystal structures were determined by molecular replacement using MOLREP as part of the CCP4 suite. […]

## CCCCCCCCCCCCCCCCCCCCCCCCCC(=O)N[C@@H](CO[C@H]1O[C@H](CO)[C@H](O)[C@H](O)[C@H]1O)[C@H](O)[C@H](O)CCCCCCCCCCCCCC [α-GalCer, α-galactosyl ceramide]
Solid tumours
  treatment of solid tumours: ineffective
[1]
  Kd: 11 nM
CD1d
  buried surface area between glycolipid and CD1d: 1,027 Å^2
